# Laboratory results as given in patent publication US20260285850A1, “SUBSTITUTED OXAZOLIDINONES AND IMIDAZOLINONES AS HERBICIDES” (FMC CORPORATION, priority 2023, published 2026).
# Columns and labels:
# Type in all cases: in vivo
# [1] = tested on: green foxtail (Setaria viridis); assay: Test A preemergence soil spray, visual injury rating 0-100; details: 10 days
# In short: (§1)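 Plants were grown in a loam soil-sand blend and treated with test chemical in a non-phytotoxic solvent mixture containing surfactant, either sprayed on soil preemergence or applied postemergence to 2-10 cm plants. After 10 days in a greenhouse, injury was scored visually against untreated controls, 0 meaning no effect and 100 complete control.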
# [2] = tested on: palmer (palmer amaranth, palmer pigweed, Amaranthus palmeri); assay: as above; details: 10 days
# In short: as §1
# [3] = tested on: barnyardgrass (Echinochloa crus-galli); assay: as above; details: 10 days
# In short: as §1
# [4] = tested on: ryegrass, Italian (italian ryegrass, Lolium multiflorum); assay: as above; details: 10 days
# In short: as §1
# kochia (Bassia scoparia) [5] = assay: as above; details: 10 days
# In short: as §1
# [6] = tested on: blackgrass (Alopecurus myosuroides); assay: as above; details: 10 days
# In short: as §1
# soybean (Glycine max) [7] = assay: as above; details: 10 days
# In short: as §1
# [8] = tested on: oat, wild (wild oat, Avena fatua); assay: as above; details: 10 days
# In short: as §1
# corn (Zea mays) [9] = assay: as above; details: 10 days
# In short: as §1
# [10] = tested on: wheat (Triticum aestivum); assay: as above; details: 10 days
# In short: as §1
# [11] = tested on: ragweed (common ragweed, Ambrosia artemisiifolia); assay: as above; details: 10 days
# In short: as §1
# [12] = tested on: barnyardgrass (Echinochloa crusgalli); assay: Test B flooded paddy test, visual plant response rating 0-100; details: 250 g ai/ha, Flood, applied to paddy water, evaluated after 13 days
# In short: (§2)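 Greenhouse, 13 d. Seedlings at 2-leaf stage, pots flooded to 3 cm, compound delivered into floodwater, water level held constant. Evaluated visually relative to controls.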
# [13] = tested on: ducksalad (Heteranthera limosa); assay: as above; details: 250 g ai/ha, Flood, applied to paddy water, evaluated after 13 days
# In short: as §2
# [14] = tested on: sedge, umbrella (small-flower umbrella sedge, Cyperus difformis); assay: as above; details: 250 g ai/ha, Flood, applied to paddy water, evaluated after 13 days
# In short: as §2
# rice (Oryza sativa) = assay: as above; details: 250 g ai/ha, Flood, applied to paddy water, evaluated after 13 days
# In short: as §2
# [15] = tested on: green foxtail (Setaria viridis); assay: Test A postemergence application, visual injury rating 0-100
# In short: as §1
# [16] = tested on: horseweed (Erigeron canadensis); assay: as above
# In short: as §1
# [17] = tested on: palmer (palmer amaranth, palmer pigweed, Amaranthus palmeri); assay: as above
# In short: as §1
# [18] = tested on: barnyardgrass (Echinochloa crus-galli); assay: as above
# In short: as §1
# [19] = tested on: ryegrass, Italian (italian ryegrass, Lolium multiflorum); assay: as above
# In short: as §1
# [20] = tested on: galium (catchweed bedstraw, Galium aparine); assay: as above; details: Postemergence, 16 g ai/ha, greenhouse 10 days; 0 no effect, 100 complete control
# In short: as §1
# kochia (Bassia scoparia) [21] = assay: as above
# In short: as §1
# [22] = tested on: blackgrass (Alopecurus myosuroides); assay: as above
# In short: as §1
# soybean (Glycine max) [23] = assay: as above
# In short: as §1
# [24] = tested on: oat, wild (wild oat, Avena fatua); assay: as above
# In short: as §1
# corn (Zea mays) [25] = assay: as above
# In short: as §1
# [26] = tested on: wheat (Triticum aestivum); assay: as above
# In short: as §1
# [27] = tested on: ragweed (common ragweed, Ambrosia artemisiifolia); assay: as above
# In short: as §1
# [28] = 62 g ai/ha, 0 = no effect, 100 = complete control
# [29] = 62 g ai/ha, postemergence, 10 days, 0 = no effect, 100 = complete control
# [30] = Postemergence, 16 g ai/ha, greenhouse 10 days, 0 no effect, 100 complete control
smiles,measurement,setting,value
CC1(C(=O)NC2CC=C(C(=O)OCC(F)F)C2)CN(c2cc(Cl)cc(Cl)c2)C(=O)O1 (stereo not drawn) [Compound 154],"Foxtail, Green plant response rating","[1]; 16 g ai/ha, 0 to 100 scale",40
same,"Foxtail, Green plant response rating (0-100)",[1]; [28],90
same,"Pigweed, Palmer plant response rating","[2]; 16 g ai/ha, 0 to 100 scale",60
same,"Pigweed, Palmer plant response rating (0-100)",[2]; [28],100
same,Barnyardgrass plant response rating,"[3]; 16 g ai/ha, 0 to 100 scale",30
same,Barnyardgrass plant response rating (0-100),[3]; [28],90
same,"Ryegrass, Italian plant response rating","[4]; 16 g ai/ha, 0 to 100 scale",30
same,"Ryegrass, Italian plant response rating (0-100)",[4]; [28],80
same,Kochia plant response rating,"kochia (Bassia scoparia) [5]; 16 g ai/ha, 0 to 100 scale",20
same,Kochia plant response rating (0-100),kochia (Bassia scoparia) [5]; [28],90
same,Blackgrass plant response rating,"[6]; 16 g ai/ha, 0 to 100 scale",0
same,Blackgrass plant response rating (0-100),[6]; [28],0
same,Soybean plant response rating,"soybean (Glycine max) [7]; 16 g ai/ha, 0 to 100 scale",0
same,Soybean plant response rating (0-100),soybean (Glycine max) [7]; [28],50
same,"Oat, Wild plant response rating","[8]; 16 g ai/ha, 0 to 100 scale",0
same,"Oat, Wild plant response rating (0-100)",[8]; [28],20
same,Corn plant response rating,"corn (Zea mays) [9]; 16 g ai/ha, 0 to 100 scale",20
same,Corn plant response rating (0-100),corn (Zea mays) [9]; [28],30
same,Wheat plant response rating,"[10]; 16 g ai/ha, 0 to 100 scale",10
same,Wheat plant response rating (0-100),[10]; [28],60
same,Ragweed plant response rating,"[11]; 16 g ai/ha, 0 to 100 scale",0
same,Ragweed plant response rating (0-100),[11]; [28],50
same,"Plant response rating, Barnyardgrass (0 to 100 scale, 0 is no effect and 100 is complete control)",[12],98
same,"Plant response rating, Ducksalad (0 to 100 scale, 0 is no effect and 100 is complete control)",[13],70
same,"Plant response rating, Sedge, Umbrella (0 to 100 scale, 0 is no effect and 100 is complete control)",[14],95
same,"Plant response rating, Rice (0 to 100 scale, 0 is no effect and 100 is complete control)",rice (Oryza sativa),95
same,"Foxtail, Green plant response rating (0-100)",[15]; [29],90
same,"Foxtail, Green plant response rating (0 to 100 scale)",[15]; [30],80
same,Horseweed plant response rating (0-100),[16]; [29],70
same,Horseweed plant response rating (0 to 100 scale),[16]; [30],70
same,"Pigweed, Palmer plant response rating (0-100)",[17]; [29],90
same,"Pigweed, Palmer plant response rating (0 to 100 scale)",[17]; [30],90
same,Barnyardgrass plant response rating (0-100),[18]; [29],100
same,Barnyardgrass plant response rating (0 to 100 scale),[18]; [30],100
same,"Ryegrass, Italian plant response rating (0-100)",[19]; [29],80
same,"Ryegrass, Italian plant response rating (0 to 100 scale)",[19]; [30],60
same,Galium plant response rating (0 to 100 scale),[20],50
same,Kochia plant response rating (0-100),kochia (Bassia scoparia) [21]; [29],90
same,Kochia plant response rating (0 to 100 scale),kochia (Bassia scoparia) [21]; [30],90
same,Blackgrass plant response rating (0-100),[22]; [29],0
same,Blackgrass plant response rating (0 to 100 scale),[22]; [30],0
same,Soybean plant response rating (0-100),soybean (Glycine max) [23]; [29],60
same,Soybean plant response rating (0 to 100 scale),soybean (Glycine max) [23]; [30],60
same,"Oat, Wild plant response rating (0-100)",[24]; [29],90
same,"Oat, Wild plant response rating (0 to 100 scale)",[24]; [30],20
same,Corn plant response rating (0-100),corn (Zea mays) [25]; [29],100
same,Corn plant response rating (0 to 100 scale),corn (Zea mays) [25]; [30],100
same,Wheat plant response rating (0-100),[26]; [29],90
same,Wheat plant response rating (0 to 100 scale),[26]; [30],70
same,Ragweed plant response rating (0-100),[27]; [29],90
same,Ragweed plant response rating (0 to 100 scale),[27]; [30],40
